Experimental data reported in paper PMC4519900 (International Journal of Molecular Sciences, 2015).
Where two headings read alike, the source gives them in different places.

Key:
[1] = target: T1, A. suum QFR (complex II) (Ascaris suum, UniProt O44074+P92506+P92507); conditions: read-out: IC50 for A. suum QFR; cited from earlier work
T1 construct: from tissue; host or cells: adult Ascaris suum muscle, mitochondrial fraction

[2] = test system: bovine SQR; design: method as in PMID 3209470, PMID 12515859, PMID 19242645; conditions: cited from earlier work
[3] = target: T1, A. suum QFR (complex II); assay: SQR activity assay of A. suum complex II (QFR) in mitochondrial fraction, UQ2 consumption at 278 nm; format: biochemical
Procedure: (§1) The CP buffer containing the prepared mitochondrial fraction was replaced with 50 mM Tris–HCl buffer, pH 7.4 containing 1 mM disodium malonate, 210 mM mannitol, 10 mM sucrose, and 1 mM EDTA. Final concentrations of the A. suum and porcine mitochondria (quantified protein) were adjusted to 10 and 20 mg/mL, respectively. Mitochondrial fractions were separated in 50 μL aliquots, frozen by liquid nitrogen and stored at 193 K until use. Prior to assay, the mitochondrial suspensions were thawed on ice and SQR was reactivated by incubation at 298 K for 30 min in equal volume of 50 mM potassium phosphate buffer pH 7.4, containing 337 μM disodium malonate. SQR assay buffer composed of 50 mM potassium phosphate buffer pH 7.4, 0.1% SML, 2 mM potassium cyanide, and 60 μM of 2,3-dimethoxy-5-methyl-6-geranyl-1,4-benzoquinone (UQ2) was pre-equilibrated at 298 K for 20 min. The assay mixture was constituted by adding 15 μg (A. suum) or 30 μg (porcine) of reactivated mitochondrial fraction to the assay buffer and incubated for 3 min for background activity measurements. The SQR activity was initiated by the addition of 10 mM disodium succinate, and recorded as rate of UQ2 consumption, monitored at 278 nm (ε278 = 15 mM^−1·cm^−1) for three minutes in 1 mL quartz cuvettes with a Shimadzu UV-3000 dual wavelength spectrophotometer (Shimazu, Kyoto, Japan). Inhibition of SQR activities were assayed in the presence of varying concentration of inhibitors (diluted in DMSO) and the IC50s calculated as the concentration of inhibitor that caused 50% decrease in SQR activity relative to control (DMSO).

[4] = target: T2, porcine SQR (complex II) (Sus scrofa, UniProt A5GZW8+D0VWV4+Q007T0); assay: SQR activity assay of porcine complex II in mitochondrial fraction, UQ2 consumption at 278 nm; format: biochemical
T2 construct: from tissue; host or cells: porcine heart muscle, mitochondrial fraction
Procedure: as §1

[5] = porcine complex II, SQR assay, 298 K, pH 7.4, read-out: IC50 (SQR)

T2 sequence (Q007T0 29-280): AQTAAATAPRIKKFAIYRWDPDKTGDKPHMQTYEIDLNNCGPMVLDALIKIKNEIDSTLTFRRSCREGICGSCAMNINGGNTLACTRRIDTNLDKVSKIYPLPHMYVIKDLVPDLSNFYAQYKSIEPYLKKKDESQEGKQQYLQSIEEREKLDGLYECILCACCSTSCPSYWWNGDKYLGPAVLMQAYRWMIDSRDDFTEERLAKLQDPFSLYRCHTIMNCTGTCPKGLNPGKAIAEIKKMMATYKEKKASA
T2 sequence (D0VWV4 30-169): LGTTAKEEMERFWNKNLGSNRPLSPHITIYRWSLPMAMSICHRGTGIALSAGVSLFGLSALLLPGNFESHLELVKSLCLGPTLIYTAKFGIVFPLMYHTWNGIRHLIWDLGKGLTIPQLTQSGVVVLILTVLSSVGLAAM
T2 sequence (A5GZW8 57-159 limits assumed): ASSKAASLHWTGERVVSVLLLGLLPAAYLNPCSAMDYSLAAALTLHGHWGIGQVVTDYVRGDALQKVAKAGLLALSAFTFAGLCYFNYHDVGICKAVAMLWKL
T2 sequence (Q0QF01 43-664 partner): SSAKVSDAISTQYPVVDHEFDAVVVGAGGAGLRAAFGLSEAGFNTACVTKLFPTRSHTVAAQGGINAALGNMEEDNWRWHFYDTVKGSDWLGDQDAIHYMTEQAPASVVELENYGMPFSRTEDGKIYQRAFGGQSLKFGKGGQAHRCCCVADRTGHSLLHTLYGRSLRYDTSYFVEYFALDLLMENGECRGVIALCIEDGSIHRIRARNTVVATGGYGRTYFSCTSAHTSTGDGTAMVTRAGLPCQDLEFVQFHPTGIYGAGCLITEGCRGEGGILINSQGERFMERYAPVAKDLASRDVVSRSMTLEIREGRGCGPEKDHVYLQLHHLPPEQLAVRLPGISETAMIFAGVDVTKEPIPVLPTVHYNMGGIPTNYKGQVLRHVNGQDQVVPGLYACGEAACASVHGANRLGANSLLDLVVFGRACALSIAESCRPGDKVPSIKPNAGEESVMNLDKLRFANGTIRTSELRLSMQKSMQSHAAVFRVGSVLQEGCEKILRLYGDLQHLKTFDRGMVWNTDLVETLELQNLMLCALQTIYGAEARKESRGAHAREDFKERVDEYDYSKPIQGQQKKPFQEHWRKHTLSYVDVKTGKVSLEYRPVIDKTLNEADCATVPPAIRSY
T1 sequence (Q33862 19-645): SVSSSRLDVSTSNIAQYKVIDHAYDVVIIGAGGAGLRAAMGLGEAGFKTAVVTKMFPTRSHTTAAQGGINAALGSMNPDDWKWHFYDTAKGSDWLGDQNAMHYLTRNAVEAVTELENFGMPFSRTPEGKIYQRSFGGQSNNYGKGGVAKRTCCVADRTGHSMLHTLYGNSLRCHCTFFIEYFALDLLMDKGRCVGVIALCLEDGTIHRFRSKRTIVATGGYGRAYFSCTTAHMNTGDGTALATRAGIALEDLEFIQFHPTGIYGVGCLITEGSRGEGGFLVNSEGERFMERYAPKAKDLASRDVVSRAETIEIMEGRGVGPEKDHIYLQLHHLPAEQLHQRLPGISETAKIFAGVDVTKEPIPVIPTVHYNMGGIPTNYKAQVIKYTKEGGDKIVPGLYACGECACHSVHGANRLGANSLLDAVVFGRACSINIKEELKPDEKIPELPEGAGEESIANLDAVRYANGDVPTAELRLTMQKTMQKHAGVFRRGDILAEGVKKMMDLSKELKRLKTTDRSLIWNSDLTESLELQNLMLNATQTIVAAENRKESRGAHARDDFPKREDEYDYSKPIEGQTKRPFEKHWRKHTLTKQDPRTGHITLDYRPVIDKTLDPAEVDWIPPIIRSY
T1 sequence (P92507 26-156): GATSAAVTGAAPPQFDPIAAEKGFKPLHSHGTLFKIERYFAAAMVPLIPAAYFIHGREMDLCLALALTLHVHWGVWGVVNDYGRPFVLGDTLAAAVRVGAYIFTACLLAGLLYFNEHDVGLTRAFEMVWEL
T1 sequence (P92506 32-188): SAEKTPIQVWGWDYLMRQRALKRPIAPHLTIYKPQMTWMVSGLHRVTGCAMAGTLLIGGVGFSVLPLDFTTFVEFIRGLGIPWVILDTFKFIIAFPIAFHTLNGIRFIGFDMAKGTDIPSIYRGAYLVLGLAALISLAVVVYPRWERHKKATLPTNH
T1 sequence (O44074 22-282): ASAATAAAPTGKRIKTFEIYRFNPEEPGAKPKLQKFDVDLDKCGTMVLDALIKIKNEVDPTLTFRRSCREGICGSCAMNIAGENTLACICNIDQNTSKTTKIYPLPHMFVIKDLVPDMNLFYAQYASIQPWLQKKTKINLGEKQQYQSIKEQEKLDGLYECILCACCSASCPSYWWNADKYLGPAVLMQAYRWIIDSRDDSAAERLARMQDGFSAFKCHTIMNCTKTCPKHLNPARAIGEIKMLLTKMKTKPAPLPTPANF

Row | SMILES | IC50 [3] | IC50 [4, 5] | further results
1 | COc1[nH]c(=O)c(C(=O)[C@@H](C)C[C@H](C)[C@@H](Cl)CCl)c(O)c1OC [Atpenin A5] |  |  | IC50 [1]: 0.012 µM; IC50 [2]: 0.0036 µM
2 | CC(C)(C)c1ccc(CNC(=O)c2ccccc2C(F)(F)F)cc1 [NN23] | 0.0055 µM | 111 µM | selectivity index (IC50 porcine SQR / IC50 A. suum QFR) ([3]; A. suum QFR versus porcine SQR): about 20,000 folds
3 | O=C(NCc1ccc(Cl)cc1Cl)c1ccccc1C(F)(F)F [NN28] | 0.028 µM |  | IC10 against porcine SQR ([4]; porcine complex II, SQR assay): > 90.0 µM
4 | CC(C)Oc1cccc(NC(=O)c2ccccc2I)c1 [derivative 1] | 0.0723 µM | 6.43 µM | 
5 | Cc1ccccc1C(=O)Nc1cccc(OC(C)C)c1 [derivative 2] | 0.515 µM | 90 µM | 
6 | CN(C)Cc1cccc(NC(=O)c2ccccc2C(F)(F)F)c1 [derivative 3] | 3.42 µM | 256 µM | increase of IC50 for A. suum QFR relative to flutolanil [3]: 59 fold; increase of IC50 for porcine SQR relative to flutolanil ([4]; versus flutolanil): 6 fold
7 | O=C(Nc1cccc(Oc2ccccc2)c1)c1ccccc1C(F)(F)F [derivative 4] | 0.0794 µM | 16.2 µM | 
8 | O=C(Nc1cccc(-c2ccccc2)c1)c1ccccc1C(F)(F)F [derivative 5] | 0.0245 µM | 8.61 µM | 
9 | O=C(Nc1cccc(Oc2c(F)c(F)c(F)c(F)c2F)c1)c1ccccc1C(F)(F)F [derivative 6] | 0.33 µM | 236 µM | 
10 | CC(C)Oc1cccc(NC(=O)c2ccccc2C(F)(F)F)c1 [flutolanil, N-[3-(isopropyloxy)phenyl]-2-(trifluoromethyl)benzamide, reference compound] | 0.0581 µM |  | IC50 ([3]; IC50 (QFR), A. suum complex II, SQR assay, 298 K, pH 7.4): 0.058 µM; IC50 [4]: 45.9 µM
